Tests used:
NDM-1 = NDM-1 (Klebsiella pneumoniae, UniProt C7C422); test: ICP mass spectrometry of Zn in enzyme; details: NDM-1 inactivated by AM-A, ICP-MS
Experimental: Inductively coupled mass spectrometry (ICP-MS) was used to analyze the ability of AM-A to chelate Zn^66 from purified NDM-1 (27-270). The NDM-1 protein was purified as previously described^26 and freshly exchanged using a 15 kDa cutoff dialysis tubing into ICP-MS buffer (20 mM HEPES, 100 mM NaCl, pH 7.5) overnight at 4° C. in order to remove any contaminating metals. The protein was concentrated to ˜5 mg/mL and varying concentrations of AM-A were incubated with the protein samples in triplicate for 3 hours at room temperature with gentle shaking. The protein-AM-A samples were again dialyzed overnight at 4° C. into ICP-MS buffer using 12-14 kDa cutoff D-tube dialyzer mini (EMD biosciences) microdialysis cassettes. The final protein was diluted to 1 mg/mL in ICP-MS buffer, followed by a 1/40 dilution in an internal standard (10 ug/L Sc45, 1% nitric acid, Inorganic Ventures). Prior to sample analysis, the ICP MS was calibrated using a standard solution containing the metal isotopes of interest (Inorganic Ventures). […] Quantitative analysis was performed in triplicate for each sample with 60 sweeps per reading using the peak-hopping mode with a 50 ms/AMU dwell time for each element. […] Isotope abundance was determined by integrating peak areas using the NexION software program, and the data was represented graphically using Microsoft Excel.

K. pneumoniae N11-2218 = test: Mouse lethal systemic infection, survival; assay type: in vivo, CD1 mice
Text: All animals were housed in specific pathogen-free units in the Central Animal Facility at McMaster University. All experimental protocols were approved by, and performed in accordance with the McMaster Animal Research Ethics Board. Female CD1 mice were purchased from Charles River.
Mice were infected intraperitoneally (ip) with a dose of 2×10^6 colony forming units (cfu) of Klebsiella pneumoniae N11-2218 for all organ bacterial load experiments, or with a dose of 5×10^7cfu for all survival experiments. For all organ bacterial load experiments, mice were euthanized 48 hours post infection, and spleen and liver were harvested. Organs were placed into 1 mL sterile PBS on ice, and then homogenized (Mixer Mill 400; Retsch). Organ homogenates were then serially diluted in PBS, and plated on Brilliant Green agar (Oxoid) for cfu enumeration. For survival curves, mice were monitored for endpoint. For all experiments, mice were treated 30 minutes post infection with a specified subcutaneous dose of either PBS, meropenem, AM-A inhibitor, or a combination of both antibiotic and inhibitor.

Chain of NDM-1 (C7C422 27-270 limits assumed): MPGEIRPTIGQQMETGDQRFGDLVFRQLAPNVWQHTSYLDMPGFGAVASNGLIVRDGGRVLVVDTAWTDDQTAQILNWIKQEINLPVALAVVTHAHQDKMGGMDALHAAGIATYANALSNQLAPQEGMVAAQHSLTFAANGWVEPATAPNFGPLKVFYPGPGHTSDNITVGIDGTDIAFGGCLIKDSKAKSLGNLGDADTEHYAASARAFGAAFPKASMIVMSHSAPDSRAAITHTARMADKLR

SMILES: N[C@H](CN[C@H](CN[C@@H](CC(=O)O)C(=O)O)C(=O)O)C(=O)O [AM-A, aspergillomarasmine A]
- loss of Zn from NDM-1 (NDM-1): ~1.8 Zn equivalents
- prevention of lethal infection (K. pneumoniae N11-2218; monotherapy (alone)): unable to prevent lethal infection
- survival (K. pneumoniae N11-2218; single dose of combination meropenem 10 mg/kg + AM-A 30 mg/kg, 5 days following infection): > 95%

— patent publication US10016383B2, “Inhibitors of metallo-β-lactamase-enzymes” (McMaster University, priority 2013, dated 2018)
